Positions of bridges follow the written chain, without caps; N, C: chain ends. Non-standard residues stand in square brackets, D forms with d. Residues, ends and D or L forms follow the SMILES beside them. Bip = N[C@@H](Cc1ccc(-c2ccccc2)cc1)C(=O)O; Hyp = O=C(O)[C@@H]1C[C@@H](O)CN1; Nle = CCCC[C@H](N)C(=O)O; Orn = NCCC[C@H](N)C(=O)O; Abu = CC[C@H](N)C(=O)O; Sar = CNCC(=O)O
Experiments:
[1] = In vitro plasma stability and predicted half-life (HPLC main peak area, Example 3); format: in vitro ADME; settings: human plasma (EDTA anticoagulant), 37°C, sampled up to 24 h, predicted half-life calculated with Winolin
Method: The modified peptides in this study were designed with non-natural amino acid substitutions at certain non-essential positions to enhance peptide stability and improve druggability. Peptides were dissolved in deionized water to 2 mg/mL, then diluted with acetonitrile to 1 mg/mL and filtered through an organic membrane. 200 µL of the filtrate was transferred to an LC vial as the peptide control. 300 µL of human plasma (comprising EDTA as anticoagulant, Nanjing Senbeijia Biotechnology Co., Ltd., Lot No. SBJ-P-HU011-100 mL) was mixed with 300 µL acetonitrile, centrifuged at 4°C and 12,000 rpm for 5 minutes. The supernatant was filtered through an organic membrane, and 200 µL of the filtrate was transferred to an LC vial as the plasma blank control. For peptide samples, 10 mg of peptide was weighed mixed with 5 mL of human plasma and vortexed thoroughly. 300 µL of peptide-containing plasma was mixed with 300 µL acetonitrile, centrifuged at 4°C and 12,000 rpm for 5 minutes, and the supernatant was filtered through an organic membrane. 200 µL of the filtrate was transferred to an LC vial as the 0 min sample. Peptide-containing plasma was incubated in a 37°C water bath, and samples at other time points were collected using the same procedure as the 0 min sample. For peptides AJ003 and AJ003-1, the sampling time points were 0 min, 5 min, 10 min, 20 min, 30 min, 1 h, 2 h, 4 h, 6 h, 10 h, 12 h, and 24 h. For modified peptides AJ003-34, AJ003-35, AJ003-36, AJ003-37, AJ003-38, AJ003-39, AJ003-40, AJ003-41, and AJ003-42, the time points were 0 min, 10 min, 30 min, 1 h, 4 h, 6 h, 10 h, 12 h, and 24 h. All peptide sample series were analyzed by HPLC, recording the changes in main peak areas over plasma incubation time. Predicted in vitro half-lives were calculated using the pharmacokinetic software Winolin. Due to the presence of tautomers, AJ003 peak areas were difficult to integrate accurately over time. AJ003-1 is an analog of AJ003 in which the threonine at position 5 is substituted with D-threonine; its sequence differs from AJ003 by only one amino acid configuration. […] The in vitro plasma half-lives of modified peptides AJ003-34, AJ003-35, AJ003-36, AJ003-37, AJ003-38, AJ003-39, AJ003-40, AJ003-41, and AJ003-42 were 61.9 h, 45.3 h, 65.3 h, 71.0 h, 26.7 h, 43.0 h, 84.0 h, 30.0 h, and 61.4 h, respectively.

α7 nAChR = α7 nAChR (Homo sapiens, UniProt P36544); experiment: BLI (biolayer interferometry) affinity of peptides to α7 nAChR; format: binding; design: inferred from the 'similar' procedure on NTA sensors; settings: NTA sensor, α7 nAChR 20 µg/mL, peptide 1.372-1000 nM in PBS
From the text: BLI is a label-free technology that converts optical interference signals occurring on the surface of BLI biosensors into real-time response signals. By monitoring the molecular binding process in real time, the system determines association rate constants (ka or kon), dissociation rate constants (kd or koff), and initial binding rates, and calculates affinity (KD) by fitting analysis. Here are the specific procedures: NTA sensors (Sartorius) were placed in a pre-wetting tray, which was then positioned in a black 96-well plate with 200 µL PBS per well. The NTA sensors were pre-wetted for at least 15 minutes. The target protein α9 nAChR was diluted in PBS to 5 µg/mL, with 200 µL added per well. Test peptides were dissolved in PBS and serially diluted threefold, with concentrations from high to low as 1000 nM, 333.3 nM, 111.1 nM, 37.04 nM, 12.35 nM, 4.115 nM, and 1.372 nM, with an additional well with PBS only as a zeroconcentration control. After equilibrating the instrument baseline, the NTA sensor was used to immobilize the target protein α9 nAChR. Once immobilization was complete, the baseline was re-equilibrated, followed by a 5-minute association and a 5-minute dissociation phase. Affinity measurements of the test peptides were conducted sequentially using the above procedure. The procedure for measuring peptide affinity to α7 nAChR was similar, except that the α7 nAChR concentration was 20 µg/mL. Tables 2 and 3 show the BLI-determined affinities of alanine-scan peptide analogs with target proteins, which identified sites on the parent peptide suitable for modification. Subsequently, single-site non-natural amino acid substituted peptides were evaluated by BLI for target protein affinity. Finally, multi-site combinatorial modified peptides were measured for affinity by BLI, leading to the selection of high-affinity peptides for further screen and drug development potential. Table 2 Test Results for Affinity of Modified Peptides to α9 nAChR

Row | SMILES | half-life at 2 mg/mL [1] [h] | Kd (α7 nAChR) [nM]
1 | CC(C)C[C@H](NC(=O)[C@@H](NC(=O)[C@H]1CSSC[C@H](NC(=O)[C@H](CO)NC(=O)CN)C(=O)N[C@@H](CO)C(=O)N[C@H]([C@H](C)O)C(=O)N2CCC[C@H]2C(=O)N2CCC[C@H]2C(=O)N[C@@H](CO)C(=O)N1)C(C)C)C(=O)N[C@@H](Cc1ccc(O)cc1)C(=O)N[C@@H](CO)C(=O)O [AJ003-1, GSCS-(D-Thr)-PPS-(D-Cys)-VLYS (3,9 disulfide bond)] (H-GSCS[dT]PPS[dC]VLYS-OH; disulfide 3-9) | ~10.8 | 
2 | CC(C)C[C@H](NC(=O)[C@@H](NC(=O)[C@H]1CSSC[C@H](NC(=O)[C@H](CO)NC(=O)CN)C(=O)N[C@@H](CO)C(=O)N[C@H]([C@H](C)O)C(=O)N2CCC[C@H]2C(=O)N2CCC[C@H]2C(=O)N[C@@H](CO)C(=O)N1)C(C)C)C(=O)N[C@@H](Cc1ccc(O)cc1)C(=O)N[C@@H](CO)C(N)=O [AJ003-4, GSCS-(D-Thr)-PPS-(D-Cys)-VLYS-NH2 (3,9 disulfide bond)] (H-GSCS[dT]PPS[dC]VLYS-NH2; disulfide 3-9) |  | 339
3 | CC(C)C[C@H](NC(=O)[C@@H](NC(=O)[C@H]1CSSC[C@@H](NC(=O)[C@H](CO)NC(=O)CN)C(=O)N[C@@H](CO)C(=O)N[C@H]([C@H](C)O)C(=O)N2CCC[C@H]2C(=O)N2CCC[C@H]2C(=O)N[C@@H](CO)C(=O)N1)C(C)C)C(=O)N[C@@H](Cc1ccc(O)cc1)C(=O)N[C@@H](CO)C(=O)O [AJ003-5, GS-(D-Cys)-S-(D-Thr)-PPS-(D-Cys)-VLYS (3,9 disulfide bond)] (H-GS[dC]S[dT]PPS[dC]VLYS-OH; disulfide 3-9) |  | 400
4 | CC(C)C[C@@H](NC(=O)[C@H](NC(=O)[C@H]1CSSC[C@@H](NC(=O)[C@@H](CO)NC(=O)CN)C(=O)N[C@H](CO)C(=O)N[C@H]([C@H](C)O)C(=O)N2CCC[C@@H]2C(=O)N2CCC[C@@H]2C(=O)N[C@H](CO)C(=O)N1)C(C)C)C(=O)N[C@H](Cc1ccc(O)cc1)C(=O)N[C@H](CO)C(=O)O [AJ003-6] (H-G[dS][dC][dS][dT][dP][dP][dS][dC][dV][dL][dY][dS]-OH; disulfide 3-9) |  | 532
5 | CNCC(=O)N[C@@H](CO)C(=O)N[C@H]1CSSC[C@H](C(=O)N[C@H](C(=O)N[C@@H](CC(C)C)C(=O)N[C@@H](Cc2ccc(O)cc2)C(=O)N[C@@H](CO)C(=O)O)C(C)C)NC(=O)[C@H](CO)NC(=O)[C@@H]2CCCN2C(=O)[C@@H]2CCCN2C(=O)[C@@H]([C@H](C)O)NC(=O)[C@H](CO)NC1=O [AJ003-8, Sar-SCS-(D-Thr)-PPS-(D-Cys)-VLYS (3,9 disulfide bond)] (H-[Sar]SCS[dT]PPS[dC]VLYS-OH; disulfide 3-9) |  | 6420
6 | CC[C@H](NC(=O)[C@@H](NC(=O)[C@H]1CSSC[C@H](NC(=O)[C@H](CO)NC(=O)CN)C(=O)N[C@@H](CO)C(=O)N[C@H]([C@H](C)O)C(=O)N2CCC[C@H]2C(=O)N2CCC[C@H]2C(=O)N[C@@H](CO)C(=O)N1)C(C)C)C(=O)N[C@@H](Cc1ccc(O)cc1)C(=O)N[C@@H](CO)C(=O)O [AJ003-28, GSCS-(D-Thr)-PPS-(D-Cys)-V-ABu-YS (3,9 disulfide bond)] (H-GSCS[dT]PPS[dC]V[Abu]YS-OH; disulfide 3-9) |  | 690
7 | CCCC[C@H](NC(=O)[C@@H](NC(=O)[C@H]1CSSC[C@H](NC(=O)[C@H](CO)NC(=O)CN)C(=O)N[C@@H](CO)C(=O)N[C@H]([C@H](C)O)C(=O)N2CCC[C@H]2C(=O)N2CCC[C@H]2C(=O)N[C@@H](CO)C(=O)N1)C(C)C)C(=O)N[C@@H](Cc1ccc(O)cc1)C(=O)N[C@@H](CO)C(=O)O [AJ003-29, GSCS-(D-Thr)-PPS-(D-Cys)-V-Nle-YS (3,9 disulfide bond)] (H-GSCS[dT]PPS[dC]V[Nle]YS-OH; disulfide 3-9) |  | 674
8 | CC(C)C[C@H](NC(=O)[C@@H](NC(=O)[C@H]1CSSC[C@H](NC(=O)[C@H](CO)NC(=O)CN)C(=O)N[C@@H](CO)C(=O)N[C@H]([C@H](C)O)C(=O)N2CCC[C@H]2C(=O)N2CCC[C@H]2C(=O)N[C@@H](CO)C(=O)N1)C(C)C)C(=O)N[C@@H](Cc1ccc(-c2ccccc2)cc1)C(=O)N[C@@H](CO)C(=O)O [AJ003-32, GSCS-(D-Thr)-PPS-(D-Cys)-VL-Bip-S (3,9 disulfide bond)] (H-GSCS[dT]PPS[dC]VL[Bip]S-OH; disulfide 3-9) |  | 375
9 | CC(C)C[C@H](NC(=O)[C@@H](NC(=O)[C@H]1CSSC[C@H](NC(=O)[C@H](CO)NC(=O)CN)C(=O)N[C@@H](CO)C(=O)N[C@H]([C@H](C)O)C(=O)N2CCC[C@H]2C(=O)N2CCC[C@H]2C(=O)N[C@@H](CO)C(=O)N1)C(C)C)C(=O)N[C@@H](Cc1ccc(O)cc1)C(=O)N[C@@H](CCCN)C(N)=O [AJ003-33, GSCS-(D-Thr)-PPS-(D-Cys)-VLY-Orn-NH2 (3,9 disulfide bond)] (H-GSCS[dT]PPS[dC]VLY[Orn]-NH2; disulfide 3-9) |  | 400
10 | CCCC[C@H](NC(=O)[C@@H](NC(=O)[C@H]1CSSC[C@H](NC(=O)[C@H](CO)NC(=O)CN)C(=O)N[C@@H](CO)C(=O)N[C@H]([C@H](C)O)C(=O)N2C[C@H](O)C[C@H]2C(=O)N2C[C@H](O)C[C@H]2C(=O)N[C@@H](C)C(=O)N1)C(C)C)C(=O)N[C@@H](Cc1ccc(-c2ccccc2)cc1)C(=O)N[C@@H](CCCN)C(N)=O [AJ003-35, GSCS-(D-Thr)-Hyp-Hyp-A-(D-Cys)-V-Nle-Bip-Orn-NH2 (3,9 disulfide bond)] (H-GSCS[dT][Hyp][Hyp]A[dC]V[Nle][Bip][Orn]-NH2; disulfide 3-9) | 45.3 | 142
11 | CCCC[C@H](NC(=O)[C@@H](NC(=O)[C@H]1CSSC[C@H](NC(=O)[C@H](CO)NC(=O)CN)C(=O)N[C@@H](CO)C(=O)N[C@H]([C@H](C)O)C(=O)N2C[C@H](O)C[C@H]2C(=O)N2C[C@H](O)C[C@H]2C(=O)N[C@@H](CO)C(=O)N1)C(C)C)C(=O)N[C@@H](Cc1ccccc1)C(=O)N[C@@H](CCCN)C(N)=O [AJ003-37, GSCS-(D-Thr)-Hyp-Hyp-S-(D-Cys)-V-Nle-F-Orn-NH2 (3,9 disulfide bond)] (H-GSCS[dT][Hyp][Hyp]S[dC]V[Nle]F[Orn]-NH2; disulfide 3-9) | 71 | 68.7
12 | CCCC[C@H](NC(=O)[C@@H](NC(=O)[C@H]1CSSC[C@H](NC(=O)[C@H](CO)NC(=O)CN)C(=O)N[C@@H](CO)C(=O)N[C@H]([C@H](C)O)C(=O)N2C[C@H](O)C[C@H]2C(=O)N2C[C@H](O)C[C@H]2C(=O)N[C@@H](C)C(=O)N1)C(C)C)C(=O)N[C@@H](Cc1ccccc1)C(=O)N[C@@H](CCCN)C(N)=O [AJ003-38, GSCS-(D-Thr)-Hyp-Hyp-A-(D-Cys)-V-Nle-F-Orn-NH2 (3,9 disulfide bond)] (H-GSCS[dT][Hyp][Hyp]A[dC]V[Nle]F[Orn]-NH2; disulfide 3-9) | 26.7 | 187

Source: patent publication EP4725956A1, “MODIFIED POLYPEPTIDE AND USE THEREOF IN FIELD OF ANALGESIA” (Nanjing Anji Biotechnology Co., Ltd., priority 2023, dated 2024)
